Reference: PubChem BioAssay AID2060341 (Molecular Pharmacology Branch, DTP, NCI, 2025)

System: 327498-153-R-J2-PDC multicell spheroid viability
Assay: Anticancer human tumor 327498-153-R-J2-PDC patient-derived uterine carcinosarcoma cell line growth inhibition [IpAb]
Conditions: for IC50: curve of first compound; for viability, T/C: stronger effect = lower value
Source text: Combinatorial screen of targeted agents with ipatasertib and abemaciclib in multi-cell type tumor spheroids
A high-throughput screen of multi-cell type tumor spheroids was designed to identify active combinations of targeted small molecules and ipatasertib or abemaciclib. Complex spheroids include a stromal component modeled by human endothelial cells (HUVEC) and fibroblasts modeled by human mesenchymal stem cells (MSCs). The concentration ranges selected for each drug and investigational agent were based upon clinically achievable concentrations if the clinical Cmax of the agent was known.
Compounds. The drugs and investigational agents: ipatasertib (NSC767898), abemaciclib(NSC768073), selumetinib (NSC741078), trametinib (758246), adavosertib (NSC754352), everolimus (NSC733504), sapanisertib (NSC764658), vemurafenib (NSC761431), venetoclax (NSC766270), copanlisib (NSC809693), apelisib (NSC765974), palbociblib (NSC758247), vemurafenib (NSC761431), dabrafenib (NSC764134), ravoxertinib (NSC781343), BMS-387032 (NSC767048), sotorasib (NSC818433), talazoparib (NSC767125) and afursertib (NSC778305), were obtained from the National Cancer Institute (NCI) Developmental Therapeutics Program Chemical Repository. The FDA-approved anticancer drug set is available from the NCI Developmental Therapeutics Program. […] The stock solutions were prepared in dimethyl sulfoxide (DMSO, Sigma-Aldrich, St. Louis, MO, cat. D2650) at 800-fold the tested concentration and stored at -70 degrees C prior to their use. All drugs and investigational agents were tested over a range starting from a high concentration at or near the clinical Cmax and decreasing in half-log increments. If the clinical Cmax for an agent had not been determined, the highest concentration tested was 10 microM.
NCI60 Cell Culture. NCI60 cell lines were obtained from the NCI Developmental Therapeutics Program Tumor Repository. For each lot of cells, the Repository performed Applied Biosystems AmpFLSTR Identifiler testing with PCR amplification to confirm consistency with the published Identifier STR profile for each cell line. Cells were kept in continuous culture for no more than 20 passages. The optimal seeding densities for each of the cell lines at each time point assessed were determined prior to performing the concentration response studies. Briefly, the NCI60 human tumor lines were grown as monolayers in RPMI 1640 medium supplemented with 10% FBS and 2 mmol/L L-glutamine.
An additional 9 lines were from the NCI60 cell line panel including MDA-MB-231 breast carcinoma, MDA-MB-468 breast carcinoma, MCF7 breast carcinoma, Hs578T breast carcinoma, MALME-3M melanoma, SK-MEL-2 melanoma, SK-OV-3 ovarian carcinoma, DU-145 prostate carcinoma, PC-3 prostate carcinoma, all cell lines along with major genetic alterations are listed on Table 2. Pooled donor human umbilical vein endothelial cells (HUVEC, Lonza, cat. CC-2519) and human mesenchymal stem cells (hMSC, Lonza, cat. PT-2501) were purchased from Lonza (Walkersville, MD).
PDMR cell lines were grown in complete medium (DC medium): Dulbecco's modified Eagle's medium (DMEM)/F12 supplemented with 5% fetal bovine serum (FBS), 2 mM L-glutamine, 100 U/mL penicillin and 100 µg/ml streptomycin, 0.4 µg/ml hydrocortisone, 10 ng/ml epidermal growth factor (EGF) recombinant human protein, 24 µg/mL adenine, and 0.1 mg/mL primocin. During culture from frozen stock vials, PDMR cells were cultured in the same medium containing 10 µM Y-27632 (see Table 3). The PDCs were cultured in complete DMEM/F12 media without 10 microM Y-27632 dihydrochloride for at least two passages prior to the screen. The pooled donor HUVEC and hMSC were cultured in endothelial cell growth medium 2 (PromoCell, Heidelberg, Germany, cat. C-22011) and mesenchymal stem cell growth medium 2 (PromoCell, cat. C-28009), respectively. For all experiments, HUVEC and hMSC were used at passages </=5.
[…]
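Note: spheroids exposed to agents for 7 days.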
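Throughout, for viability, T/C: 100% = DMSO vehicle control viability.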

## Cn1nccc1Nc1nccc(-c2ccn(C(CO)c3ccc(Cl)c(F)c3)c(=O)c2)n1 (stereo not given) + CC(C)NCC(C(=O)N1CCN(c2ncnc3c2C(C)CC3O)CC1)c1ccc(Cl)cc1
Second compound 0.1 µM
  IC50: 3.26 µM
Second compound 0.316 µM
  IC50: 0.684 µM
Second compound 1 µM
  IC50: < 0.0316 µM
Second compound 3.16 µM
  IC50: < 0.0316 µM
Second compound 10 µM
  IC50: < 0.0316 µM
Second compound 0.1 µM, first compound 0.0316 µM
  viability, T/C: 87.2%
Second compound 0.1 µM, first compound 0.1 µM
  viability, T/C: 77.7%
Second compound 0.1 µM, first compound 0.316 µM
  viability, T/C: 71.4%
Second compound 0.1 µM, first compound 1 µM
  viability, T/C: 71.7%
Second compound 0.1 µM, first compound 3.16 µM
  viability, T/C: 47.9%
Second compound 0.1 µM, first compound 10 µM
  viability, T/C: 28.4%
Second compound 0.316 µM, first compound 0.0316 µM
  viability, T/C: 68.3%
Second compound 0.316 µM, first compound 0.1 µM
  viability, T/C: 59.6%
Second compound 0.316 µM, first compound 0.316 µM
  viability, T/C: 49.1%
Second compound 0.316 µM, first compound 1 µM
  viability, T/C: 51.7%
Second compound 0.316 µM, first compound 3.16 µM
  viability, T/C: 40.9%
Second compound 0.316 µM, first compound 10 µM
  viability, T/C: 22.5%
Second compound 1 µM, first compound 0.0316 µM
  viability, T/C: 49.2%
Second compound 1 µM, first compound 0.1 µM
  viability, T/C: 42.4%
Second compound 1 µM, first compound 0.316 µM
  viability, T/C: 33.8%
Second compound 1 µM, first compound 1 µM
  viability, T/C: 38.2%
Second compound 1 µM, first compound 3.16 µM
  viability, T/C: 30.5%
Second compound 1 µM, first compound 10 µM
  viability, T/C: 11.9%
Second compound 3.16 µM, first compound 0.0316 µM
  viability, T/C: 33.9%
Second compound 3.16 µM, first compound 0.1 µM
  viability, T/C: 30.4%
Second compound 3.16 µM, first compound 0.316 µM
  viability, T/C: 28.1%
Second compound 3.16 µM, first compound 1 µM
  viability, T/C: 27.7%
Second compound 3.16 µM, first compound 3.16 µM
  viability, T/C: 20%
Second compound 3.16 µM, first compound 10 µM
  viability, T/C: 9.15%
Second compound 10 µM, first compound 0.0316 µM
  viability, T/C: 28.5%
Second compound 10 µM, first compound 0.1 µM
  viability, T/C: 21.5%
Second compound 10 µM, first compound 0.316 µM
  viability, T/C: 18%
Second compound 10 µM, first compound 1 µM
  viability, T/C: 17.3%
Second compound 10 µM, first compound 3.16 µM
  viability, T/C: 15.8%
Second compound 10 µM, first compound 10 µM
  viability, T/C: 4.13%

## Cn1cnc2c(F)c(Nc3ccc(Br)cc3Cl)c(C(=O)NOCCO)cc21 + CC(C)NCC(C(=O)N1CCN(c2ncnc3c2C(C)CC3O)CC1)c1ccc(Cl)cc1
Second compound 0.1 µM
  IC50: 0.427 µM
Second compound 0.316 µM
  IC50: 0.0612 µM
Second compound 1 µM
  IC50: < 0.00949 µM
Second compound 3.16 µM
  IC50: < 0.00949 µM
Second compound 10 µM
  IC50: < 0.00949 µM
Second compound 0.1 µM, first compound 0.00949 µM
  viability, T/C: 91.7%
Second compound 0.1 µM, first compound 0.03 µM
  viability, T/C: 69.9%
Second compound 0.1 µM, first compound 0.0949 µM
  viability, T/C: 66.2%
Second compound 0.1 µM, first compound 0.3 µM
  viability, T/C: 51.7%
Second compound 0.1 µM, first compound 0.949 µM
  viability, T/C: 46.1%
Second compound 0.1 µM, first compound 3 µM
  viability, T/C: 34.1%
Second compound 0.316 µM, first compound 0.00949 µM
  viability, T/C: 60.2%
Second compound 0.316 µM, first compound 0.03 µM
  viability, T/C: 51.6%
Second compound 0.316 µM, first compound 0.0949 µM
  viability, T/C: 48%
Second compound 0.316 µM, first compound 0.3 µM
  viability, T/C: 41.9%
Second compound 0.316 µM, first compound 0.949 µM
  viability, T/C: 29.7%
Second compound 0.316 µM, first compound 3 µM
  viability, T/C: 20.6%
Second compound 1 µM, first compound 0.00949 µM
  viability, T/C: 41.9%
Second compound 1 µM, first compound 0.03 µM
  viability, T/C: 34.6%
Second compound 1 µM, first compound 0.0949 µM
  viability, T/C: 32.9%
Second compound 1 µM, first compound 0.3 µM
  viability, T/C: 28.9%
Second compound 1 µM, first compound 0.949 µM
  viability, T/C: 20.4%
Second compound 1 µM, first compound 3 µM
  viability, T/C: 11.5%
Second compound 3.16 µM, first compound 0.00949 µM
  viability, T/C: 33.8%
Second compound 3.16 µM, first compound 0.03 µM
  viability, T/C: 27.2%
Second compound 3.16 µM, first compound 0.0949 µM
  viability, T/C: 21%
Second compound 3.16 µM, first compound 0.3 µM
  viability, T/C: 21%
Second compound 3.16 µM, first compound 0.949 µM
  viability, T/C: 13.3%
Second compound 3.16 µM, first compound 3 µM
  viability, T/C: 7.22%
Second compound 10 µM, first compound 0.00949 µM
  viability, T/C: 27.1%
Second compound 10 µM, first compound 0.03 µM
  viability, T/C: 22.4%
Second compound 10 µM, first compound 0.0949 µM
  viability, T/C: 16.3%
Second compound 10 µM, first compound 0.3 µM
  viability, T/C: 15.7%
Second compound 10 µM, first compound 0.949 µM
  viability, T/C: 12.2%
Second compound 10 µM, first compound 3 µM
  viability, T/C: 6.89%
